Assay results reported in ChEMBL document CHEMBL4813920, “Metronidazole-conjugates: A comprehensive review of recent developments towards synthesis and medicinal perspective” (Eur J Med Chem, 2021).
In brackets after ≈: the same amount, converted by molar mass.

Experiments:
Pseudomonas aeruginosa [1] = test: Potency index, ratio norfloxacin MIC to test compound MIC for antibacterial activity against Pseudomonas aeruginosa ATCC 27853; format: functional
Enterococcus faecalis [2] = test: Potency index, ratio norfloxacin MIC to test compound MIC for antibacterial activity against Enterococcus faecalis; format: functional
Escherichia coli [3] = test: Potency index, ratio norfloxacin MIC to test compound MIC for antibacterial activity against Escherichia coli; format: functional
Candida albicans = test: Antimicrobial activity against Candida albicans ATCC 90023; format: functional
Candida parapsilosis = test: Antimicrobial activity against Candida parapsilosis ATCC 22019; format: functional; settings: Lodderomyces parapsilosis
Enterococcus faecalis [4] = test: Antibacterial activity against Enterococcus faecalis by microbroth dilution method; format: functional
Escherichia coli [5] = test: Antibacterial activity against Escherichia coli by microbroth dilution method; format: functional
Acinetobacter baumannii [6] = test: Potency index, ratio norfloxacin MIC to test compound MIC for antibacterial activity against Acinetobacter baumannii; format: functional
Acinetobacter baumannii [7] = test: Antibacterial activity against Acinetobacter baumannii by microbroth dilution method; format: functional
Pseudomonas aeruginosa [8] = test: Antibacterial activity against Pseudomonas aeruginosa ATCC 27853 by microbroth dilution method; format: functional
Tritrichomonas foetus [9] = test: Anti-trichomonas activity against Trichomonas foetus C1 incubated for 24 hrs by hemocytometer counting method; format: functional, organism-based; settings: C1, 24 h
Trichomonas vaginalis [10] = test: Anti-trichomonas activity against Trichomonas vaginalis G3 incubated for 24 hrs by hemocytometer counting method; format: functional, organism-based; settings: G3, 24 h
Tritrichomonas foetus [11] = test: Anti-trichomonas activity against Trichomonas foetus D1 incubated for 24 hrs by hemocytometer counting method; format: functional, organism-based; settings: D1, 24 h
[12] = Selectivity index, ratio of CC50 for African green monkey Vero cells to IC50 for antigiardial activity against Giardia intestinalis MSS:0696:1; format: toxicity; settings: read-out: Ratio CC50/IC50
Giardia intestinalis = test: Antigiardial activity against Giardia intestinalis WB ATCC 30957 incubated for 72 hrs by trypan blue staining based assay; format: functional, organism-based; settings: Giardia duodenalis, WB ATCC 30957, 72 h
[13] = Selectivity index, ratio of CC50 for African green monkey Vero cells to IC50 for antigiardial activity against Trichomonas vaginalis GT3; format: toxicity; settings: read-out: Ratio CC50/IC50
Trichomonas vaginalis [14] = test: Anti-trichomonas activity against Trichomonas vaginalis CDC 085 incubated for 48 hrs by hemocytometer based eosin exclusion assay; format: functional, organism-based; settings: CDC 085, 48 h
Staphylococcus aureus = test: Antibacterial activity against Staphylococcus aureus ATCC 6538P incubated for 24 hrs by broth microdilution method; format: functional
Trichomonas vaginalis [15] = test: Anti-trichomonas activity against Trichomonas vaginalis JT incubated for 48 hrs by hemocytometer based eosin exclusion assay; format: functional, organism-based
Entamoeba histolytica = test: Antiamoebic activity against Entamoeba histolytica HK9 ATCC 30015 incubated for 72 hrs by trypan blue staining based assay; format: functional, organism-based; settings: ATCC 30015, 72 h
Leishmania mexicana = test: Antileishmanial activity against promastigote form of Leishmania mexicana MHOM/BZ/82/Bel21 measured for 7 days by cell counting method; format: functional; settings: MHOM/BZ/82/Bel21, 168 h, time 7 day
Clostridium sporogenes = test: Antimicrobial activity against Clostridium sporogenes ATCC 19404 incubated for 24 hrs by broth microdilution method; format: functional
Escherichia coli [16] = test: Antibacterial activity against Escherichia coli ATCC 8739 incubated for 24 hrs by broth microdilution method; format: functional
Trichomonas vaginalis [17] = test: Anti-trichomonas activity against Trichomonas vaginalis GT3 incubated for 48 hrs; format: functional, organism-based; settings: GT3, 48 h
Trichomonas vaginalis [18] = test: Anti-trichomonas activity against Trichomonas vaginalis JT assessed as release of H2O2 at 0.229 uM preincubated for 3 hrs followed by DCFH-DA probe addition and measured after 30 mins by confocal microscopy; format: functional; settings: time 3.5 hrs
Clostridium perfringens = test: Antibacterial activity against Clostridium perfringens ATCC 13124 incubated for 48 hrs under anaerobic condition by MTT assay; format: functional
Trichomonas vaginalis [19] = test: Anti-trichomonas activity against Trichomonas vaginalis JT assessed as release of superoxide radical at 0.229 uM preincubated for 3 hrs followed by Dihydroethidium probe addition and measured after 30 mins by confocal microscopy; format: functional; settings: time 3.5 hrs
Leishmania braziliensis = test: Antileishmanial activity against promastigote form of Leishmania braziliensis MHOM/BR/75/M2903 measured for 7 days by cell counting method; format: functional; settings: MHOM/BR/75/M2903, 168 h, time 7 day
Trichomonas vaginalis [20] = test: Anti-trichomonas activity against Trichomonas vaginalis JT assessed as release of nitric oxide at 0.027 uM preincubated for 3 hrs followed by DAF-FM DA probe addition and measured after 30 mins by confocal microscopy; format: functional; settings: time 3.5 hrs
Trichomonas vaginalis [21] = test: Anti-trichomonas activity against Trichomonas vaginalis CDC 085 assessed as release of nitric oxide at 0.27 uM preincubated for 3 hrs followed by DAF-FM DA probe addition and measured after 30 mins by confocal microscopy; format: functional; settings: time 3.5 hrs

For Cc1ncc([N+](=O)[O-])n1CC(O)CN1CCN(S(=O)(=O)c2ccc(N)cc2)CC1 (configuration not stated), the Ratio (Pseudomonas aeruginosa [1]) was 11, the Ratio (Enterococcus faecalis [2]) was 11 and the Ratio (Escherichia coli [3]) was 84. For the same compound, the MIC (Candida albicans) was 75 µM (≈ 31.8 µg/mL), the MIC (Candida parapsilosis) was 75 µM (≈ 31.8 µg/mL) and the MIC (Enterococcus faecalis [4]) was 75 µM (≈ 31.8 µg/mL). For the same compound, the MIC (Escherichia coli [5]) was 19 µM (≈ 8.07 µg/mL), the Ratio (Acinetobacter baumannii [6]) was 11 and the MIC (Acinetobacter baumannii [7]) was 75 µM (≈ 31.8 µg/mL). It also gave an MIC (Pseudomonas aeruginosa [8]) of 38 µM (≈ 16.1 µg/mL).

Cc1ncc([N+](=O)[O-])n1CCn1cc(CN2C(=O)/C(=N\NC(N)=S)c3ccccc32)nn1 gave an IC50 (Tritrichomonas foetus [9]) of 0.6 µM, an IC50 (Trichomonas vaginalis [10]) of 2.6 µM and an IC50 (Tritrichomonas foetus [11]) of 0.6 µM.

For Cc1ncc([N+](=O)[O-])n1CCO [METRONIDAZOLE], the selectivity ratio [12] was > 22, the IC50 (Giardia intestinalis) was 5.7 µM and the selectivity ratio [13] was > 107. It also gave an IC50 (Trichomonas vaginalis [14]) of 0.49 µM, an MIC (Staphylococcus aureus) of 2050 µM (≈ 351 µg/mL) and an IC50 (Trichomonas vaginalis [15]) of 0.068 µM. The IC50 (Entamoeba histolytica) was 5.2 µM, the LC50 (Leishmania mexicana) was > 1000 µM and the MIC (Clostridium sporogenes) was 42.9 µM (≈ 7.34 µg/mL). For the same compound, the MIC (Escherichia coli [16]) was 5480 µM (≈ 938 µg/mL), the IC50 (Trichomonas vaginalis [17]) was 0.93 µM and the Activity (Trichomonas vaginalis [18]) was 1800000 a.u. For the same compound, the MIC (Clostridium perfringens) was 0.0058 µM (≈ 0.000993 µg/mL), the Activity (Trichomonas vaginalis [19]) was 350000 a.u and the LC50 (Leishmania braziliensis) was > 1000 µM.

With Cc1ncc([N+](=O)[O-])n1CCCl the Activity (Trichomonas vaginalis [20]) was 9000 a.u, the Activity (Trichomonas vaginalis [21]) was 9000 a.u and the IC50 (Trichomonas vaginalis [14]) was 0.24 µM. The IC50 (Trichomonas vaginalis [15]) was 0.006 µM.
